According to patent publication US20240158446A1, “CYCLIC COMPOUND HAVING SELECTIVE INHIBITORY ACTION ON KRAS OVER HRAS AND NRAS” (CHUGAI SEIYAKU KABUSHIKI KAISHA, priority 2021, published 2024):
*1 amine or outer side, *2 acyl side, *3 side chain or, on linkers, in order; H or OH if unused. Where a SMILES comes first, the peptide text is derived from it. Bridges are numbered along the chain shown (N, C = ends). [ ]: non-standard residue; d: D form. The star is where a group is joined. X25 = O=C([C@H](Cc1ccc(C(F)(F)F)cc1)N(CCC(F)(F)F)[*:1])[*:2]; X22 = O=C([C@H](Cc1ccc(C(F)(F)F)cc1)N(CC1CCCC1)[*:1])[*:2]; X39 = CC(C)CCN([C@@H](Cc1ccc(C(F)(F)F)cc1)C(=O)[*:2])[*:1]; hPhe(3-Cl-4-CF3) = N[C@@H](CCc1ccc(C(F)(F)F)c(Cl)c1)C(=O)O; X37 = O=C([C@H](Cc1ccc(C(F)(F)F)cc1)N(CC1CCC1)[*:1])[*:2]; X40 = CC(C)CN([C@@H](Cc1ccc(C(F)(F)F)cc1)C(=O)[*:2])[*:1]; X23 = C=CCCN([C@@H](Cc1ccc(C(F)(F)F)cc1)C(=O)[*:2])[*:1]; X27 = O=C([C@H](Cc1ccc(C(F)(F)F)cc1)N(CC1CC1)[*:1])[*:2]; X31 = COCCCN([C@@H](Cc1ccc(C(F)(F)F)cc1)C(=O)[*:2])[*:1]; X17 = CCCCN([C@@H](Cc1ccc(C(F)(F)F)cc1)C(=O)[*:2])[*:1]; X32 = COCCN([C@@H](Cc1ccc(C(F)(F)F)cc1)C(=O)[*:2])[*:1]; X38 = C#CCN([C@@H](Cc1ccc(C(F)(F)F)cc1)C(=O)[*:2])[*:1]; NMeGly(cPent) = CN[C@H](C(=O)O)C1CCCC1; NMeD = CN[C@@H](CC(=O)O)C(=O)O; NMeL = CN[C@@H](CC(C)C)C(=O)O; Morpholide = C1CN(*)CCO1; NMeA = CN[C@@H](C)C(=O)O; Ac5c = NC1(C(=O)O)CCCC1; Aze = O=C(O)[C@@H]1CCN1; Sar = CNCC(=O)O

Columns and labels:
[1] = biological target: GDP-bound NRAS wild-type protein (Homo sapiens, UniProt P01111); test: Binding to NRAS by surface plasmon resonance (SPR), Single Cycle Kinetics; conditions: SPR, GDP-bound NRAS wild-type protein vs GDP-bound KRAS wild-type protein
Sequence of GDP-bound NRAS wild-type protein (P01111 whole entry): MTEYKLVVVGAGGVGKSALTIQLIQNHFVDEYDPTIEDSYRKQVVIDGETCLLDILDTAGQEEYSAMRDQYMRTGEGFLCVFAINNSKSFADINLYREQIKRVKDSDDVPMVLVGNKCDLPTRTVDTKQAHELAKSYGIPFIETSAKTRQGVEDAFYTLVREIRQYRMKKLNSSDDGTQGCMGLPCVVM

[2] = biological target: GDP-bound KRAS wild-type protein (Homo sapiens, UniProt P01116); test: Binding to KRAS by surface plasmon resonance (SPR), Single Cycle Kinetics; conditions: SPR Single Cycle Kinetics, GDP-bound KRAS wild-type protein, 1:1 binding model; read-out: KRAS KD
Sequence of GDP-bound KRAS wild-type protein (P01116 whole entry): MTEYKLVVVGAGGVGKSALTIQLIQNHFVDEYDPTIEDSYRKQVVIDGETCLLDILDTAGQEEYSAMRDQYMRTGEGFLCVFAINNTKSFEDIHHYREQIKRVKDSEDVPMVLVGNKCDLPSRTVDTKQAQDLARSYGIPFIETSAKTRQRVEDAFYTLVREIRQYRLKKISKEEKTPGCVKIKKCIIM

[3] = biological target: GDP-bound HRAS wild-type protein (Homo sapiens, UniProt P01112); test: Binding to HRAS by surface plasmon resonance (SPR), Single Cycle Kinetics; conditions: SPR, GDP-bound HRAS wild-type protein vs GDP-bound KRAS wild-type protein
Sequence of GDP-bound HRAS wild-type protein (P01112 whole entry): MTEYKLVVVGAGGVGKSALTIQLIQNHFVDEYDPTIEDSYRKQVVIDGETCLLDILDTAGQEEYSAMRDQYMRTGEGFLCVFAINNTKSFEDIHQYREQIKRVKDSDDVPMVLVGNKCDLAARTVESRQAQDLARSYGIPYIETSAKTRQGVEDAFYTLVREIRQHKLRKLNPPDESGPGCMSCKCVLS

Compound | NRAS/KRAS (ratio of KD value for NRAS to KD value for KRAS) [1] | Kd [2] [nM] | HRAS/KRAS (ratio of KD value for HRAS to KD value for KRAS) [3]
CC[C@H](C)[C@@H]1NC(=O)[C@H](CC(C)C)N(C)C(=O)C[C@@H](C(=O)N2CCOCC2)N(C)C(=O)[C@H](C2CCCC2)N(C)C(=O)C2(CCCC2)NC(=O)[C@@H]2CCCN2C(=O)[C@H](CCc2ccc(C(F)(F)F)c(Cl)c2)NC(=O)CN(C)C(=O)[C@H](Cc2ccc(C(F)(F)F)cc2)N(CCC(F)(F)F)C(=O)[C@@H]2CCN2C(=O)[C@H](C)N(C)C1=O [PP0117] ([NMeL]I[NMeA][Aze][X25][Sar][hPhe(3-Cl-4-CF3)]P[Ac5c][NMeGly(cPent)][NMeD]-Morpholide; lactam N-11) | B (a compound having 3 or more and less than 10 is denoted as B) | 0.19 | B (a compound having 3 or more and less than 10 is denoted as B)
CC[C@H](C)[C@@H]1NC(=O)[C@H](CC(C)C)N(C)C(=O)C[C@@H](C(=O)N2CCOCC2)N(C)C(=O)[C@H](C2CCCC2)N(C)C(=O)C2(CCCC2)NC(=O)[C@@H]2CCCN2C(=O)[C@H](CCc2ccc(C(F)(F)F)c(Cl)c2)NC(=O)CN(C)C(=O)[C@H](Cc2ccc(C(F)(F)F)cc2)N(CCOC)C(=O)[C@@H]2CCN2C(=O)[C@H](C)N(C)C1=O [PP0118] ([NMeL]I[NMeA][Aze][X32][Sar][hPhe(3-Cl-4-CF3)]P[Ac5c][NMeGly(cPent)][NMeD]-Morpholide; lactam N-11) | C (A compound having a KD ratio of 0.1 or more and less than 3 is denoted as C) | 0.21 | C (A compound having a KD ratio of 0.1 or more and less than 3 is denoted as C)
CC[C@H](C)[C@@H]1NC(=O)[C@H](CC(C)C)N(C)C(=O)C[C@@H](C(=O)N2CCOCC2)N(C)C(=O)[C@H](C2CCCC2)N(C)C(=O)C2(CCCC2)NC(=O)[C@@H]2CCCN2C(=O)[C@H](CCc2ccc(C(F)(F)F)c(Cl)c2)NC(=O)CN(C)C(=O)[C@H](Cc2ccc(C(F)(F)F)cc2)N(CCCOC)C(=O)[C@@H]2CCN2C(=O)[C@H](C)N(C)C1=O [PP0119] ([NMeL]I[NMeA][Aze][X31][Sar][hPhe(3-Cl-4-CF3)]P[Ac5c][NMeGly(cPent)][NMeD]-Morpholide; lactam N-11) | C (A compound having a KD ratio of 0.1 or more and less than 3 is denoted as C) | 0.1 | C (A compound having a KD ratio of 0.1 or more and less than 3 is denoted as C)
CCCCN1C(=O)CN(C)C(=O)CN(C)C(=O)[C@H]([C@@H](C)CC)NC(=O)[C@H](CC(C)C)N(C)C(=O)C[C@@H](C(=O)N2CCOCC2)N(C)C(=O)[C@H](C2CCCC2)N(C)C(=O)C2(CCCC2)NC(=O)[C@@H]2CCCN2C(=O)[C@H](CCc2ccc(C(F)(F)F)c(Cl)c2)NC(=O)CN(C)C(=O)[C@@H]1Cc1ccc(C(F)(F)F)cc1 [PP0120] ([NMeL]I[Sar][Sar][X17][Sar][hPhe(3-Cl-4-CF3)]P[Ac5c][NMeGly(cPent)][NMeD]-Morpholide; lactam N-11) | B (a compound having 3 or more and less than 10 is denoted as B) | 0.19 | C (A compound having a KD ratio of 0.1 or more and less than 3 is denoted as C)
CC[C@H](C)[C@@H]1NC(=O)[C@H](CC(C)C)N(C)C(=O)C[C@@H](C(=O)N2CCOCC2)N(C)C(=O)[C@H](C2CCCC2)N(C)C(=O)C2(CCCC2)NC(=O)[C@@H]2CCCN2C(=O)[C@H](CCc2ccc(C(F)(F)F)c(Cl)c2)NC(=O)CN(C)C(=O)[C@H](Cc2ccc(C(F)(F)F)cc2)N(CC(C)C)C(=O)CN(C)C(=O)CN(C)C1=O [PP0121] ([NMeL]I[Sar][Sar][X40][Sar][hPhe(3-Cl-4-CF3)]P[Ac5c][NMeGly(cPent)][NMeD]-Morpholide; lactam N-11) | C (A compound having a KD ratio of 0.1 or more and less than 3 is denoted as C) | 2.1 | C (A compound having a KD ratio of 0.1 or more and less than 3 is denoted as C)
CC[C@H](C)[C@@H]1NC(=O)[C@H](CC(C)C)N(C)C(=O)C[C@@H](C(=O)N2CCOCC2)N(C)C(=O)[C@H](C2CCCC2)N(C)C(=O)C2(CCCC2)NC(=O)[C@@H]2CCCN2C(=O)[C@H](CCc2ccc(C(F)(F)F)c(Cl)c2)NC(=O)CN(C)C(=O)[C@H](Cc2ccc(C(F)(F)F)cc2)N(CC2CC2)C(=O)CN(C)C(=O)CN(C)C1=O [PP0122] ([NMeL]I[Sar][Sar][X27][Sar][hPhe(3-Cl-4-CF3)]P[Ac5c][NMeGly(cPent)][NMeD]-Morpholide; lactam N-11) | C (A compound having a KD ratio of 0.1 or more and less than 3 is denoted as C) | 0.32 | C (A compound having a KD ratio of 0.1 or more and less than 3 is denoted as C)
CC[C@H](C)[C@@H]1NC(=O)[C@H](CC(C)C)N(C)C(=O)C[C@@H](C(=O)N2CCOCC2)N(C)C(=O)[C@H](C2CCCC2)N(C)C(=O)C2(CCCC2)NC(=O)[C@@H]2CCCN2C(=O)[C@H](CCc2ccc(C(F)(F)F)c(Cl)c2)NC(=O)CN(C)C(=O)[C@H](Cc2ccc(C(F)(F)F)cc2)N(CC2CCC2)C(=O)CN(C)C(=O)CN(C)C1=O [PP0123] ([NMeL]I[Sar][Sar][X37][Sar][hPhe(3-Cl-4-CF3)]P[Ac5c][NMeGly(cPent)][NMeD]-Morpholide; lactam N-11) | B (a compound having 3 or more and less than 10 is denoted as B) | 0.83 | C (A compound having a KD ratio of 0.1 or more and less than 3 is denoted as C)
CC[C@H](C)[C@@H]1NC(=O)[C@H](CC(C)C)N(C)C(=O)C[C@@H](C(=O)N2CCOCC2)N(C)C(=O)[C@H](C2CCCC2)N(C)C(=O)C2(CCCC2)NC(=O)[C@@H]2CCCN2C(=O)[C@H](CCc2ccc(C(F)(F)F)c(Cl)c2)NC(=O)CN(C)C(=O)[C@H](Cc2ccc(C(F)(F)F)cc2)N(CC2CCCC2)C(=O)CN(C)C(=O)CN(C)C1=O [PP0124] ([NMeL]I[Sar][Sar][X22][Sar][hPhe(3-Cl-4-CF3)]P[Ac5c][NMeGly(cPent)][NMeD]-Morpholide; lactam N-11) | C (A compound having a KD ratio of 0.1 or more and less than 3 is denoted as C) | 3.5 | C (A compound having a KD ratio of 0.1 or more and less than 3 is denoted as C)
CC[C@H](C)[C@@H]1NC(=O)[C@H](CC(C)C)N(C)C(=O)C[C@@H](C(=O)N2CCOCC2)N(C)C(=O)[C@H](C2CCCC2)N(C)C(=O)C2(CCCC2)NC(=O)[C@@H]2CCCN2C(=O)[C@H](CCc2ccc(C(F)(F)F)c(Cl)c2)NC(=O)CN(C)C(=O)[C@H](Cc2ccc(C(F)(F)F)cc2)N(CCC(C)C)C(=O)CN(C)C(=O)CN(C)C1=O [PP0126] ([NMeL]I[Sar][Sar][X39][Sar][hPhe(3-Cl-4-CF3)]P[Ac5c][NMeGly(cPent)][NMeD]-Morpholide; lactam N-11) | C (A compound having a KD ratio of 0.1 or more and less than 3 is denoted as C) | 0.43 | C (A compound having a KD ratio of 0.1 or more and less than 3 is denoted as C)
C=CCCN1C(=O)CN(C)C(=O)CN(C)C(=O)[C@H]([C@@H](C)CC)NC(=O)[C@H](CC(C)C)N(C)C(=O)C[C@@H](C(=O)N2CCOCC2)N(C)C(=O)[C@H](C2CCCC2)N(C)C(=O)C2(CCCC2)NC(=O)[C@@H]2CCCN2C(=O)[C@H](CCc2ccc(C(F)(F)F)c(Cl)c2)NC(=O)CN(C)C(=O)[C@@H]1Cc1ccc(C(F)(F)F)cc1 [PP0129] ([NMeL]I[Sar][Sar][X23][Sar][hPhe(3-Cl-4-CF3)]P[Ac5c][NMeGly(cPent)][NMeD]-Morpholide; lactam N-11) | B (a compound having 3 or more and less than 10 is denoted as B) | 0.2 | C (A compound having a KD ratio of 0.1 or more and less than 3 is denoted as C)
C#CCN1C(=O)CN(C)C(=O)CN(C)C(=O)[C@H]([C@@H](C)CC)NC(=O)[C@H](CC(C)C)N(C)C(=O)C[C@@H](C(=O)N2CCOCC2)N(C)C(=O)[C@H](C2CCCC2)N(C)C(=O)C2(CCCC2)NC(=O)[C@@H]2CCCN2C(=O)[C@H](CCc2ccc(C(F)(F)F)c(Cl)c2)NC(=O)CN(C)C(=O)[C@@H]1Cc1ccc(C(F)(F)F)cc1 [PP0130] ([NMeL]I[Sar][Sar][X38][Sar][hPhe(3-Cl-4-CF3)]P[Ac5c][NMeGly(cPent)][NMeD]-Morpholide; lactam N-11) | C (A compound having a KD ratio of 0.1 or more and less than 3 is denoted as C) | 0.25 | C (A compound having a KD ratio of 0.1 or more and less than 3 is denoted as C)
CC[C@H](C)[C@@H]1NC(=O)[C@H](CC(C)C)N(C)C(=O)C[C@@H](C(=O)N2CCOCC2)N(C)C(=O)[C@H](C2CCCC2)N(C)C(=O)C2(CCCC2)NC(=O)[C@@H]2CCCN2C(=O)[C@H](CCc2ccc(C(F)(F)F)c(Cl)c2)NC(=O)CN(C)C(=O)[C@H](Cc2ccc(C(F)(F)F)cc2)N(CCC(F)(F)F)C(=O)CN(C)C(=O)CN(C)C1=O [PP0131] ([NMeL]I[Sar][Sar][X25][Sar][hPhe(3-Cl-4-CF3)]P[Ac5c][NMeGly(cPent)][NMeD]-Morpholide; lactam N-11) | B (a compound having 3 or more and less than 10 is denoted as B) | 0.14 | C (A compound having a KD ratio of 0.1 or more and less than 3 is denoted as C)
